pIC50: −log10 of the molar value. Counter-ions that a name gives are not always drawn.
biological target: T1, HIV integrase (Human immunodeficiency virus type 1 group M subtype B, UniProt P12497, F1332H); assay: Determination of enzyme (HIV integrase) inhibitory activity; format: biochemical; settings: recombinant HIV integrase (F185H), strand transfer ELISA, absorbance at 450 nm
T1 construct: HIV integrase full length gene; made in house; host or cells: Escherichia coli BL21(DE3), plasmid pET21a-INH
Summary of the method: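 Full-length integrase with F185H, expressed in E. coli and purified, was reacted for 60 min at 37 °C with compound and biotinylated donor DNA bound to streptavidin plates. Target DNA was added for 10 min, then anti-digoxigenin-peroxidase detection at A450; IC50 from % inhibition versus enzyme-free blank.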

`O=C(Nc1cn2ccn(Cc3cccc(Cl)c3)c(=O)c2c(O)c1=O)c1ccc(F)cc1` [Example 278, N-[2-(3-chlorobenzyl)-9-hydroxy-1,8-dioxo-1,8-dihydro-2H-pyrido[1,2-a]pyrazin-7-yl]-4-fluorobenzamide] and `O=C(Nc1cn2ccn(Cc3cccc(Cl)c3)c(=O)c2c(O)c1=O)c1ccncc1` [Example 287, N-[2-(3-chlorobenzyl)-9-hydroxy-1,8-dioxo-1,8-dihydro-2H-pyrido[1,2-a]pyrazin-7-yl]isonicotinamide trifluoroacetate] cannot be ordered by pIC50: over 8.00 for the first, over 8.00 for the second.

`O=C(Nc1cn2ccn(Cc3cccc(Cl)c3)c(=O)c2c(O)c1=O)c1ccccn1` [Example 279, N-[2-(3-chlorobenzyl)-9-hydroxy-1,8-dioxo-1,8-dihydro-2H-pyrido[1,2-a]pyrazin-7-yl]pyridine-2-carboxamide trifluoroacetate] and `O=C(Nc1cn2ccn(Cc3cccc(Cl)c3)c(=O)c2c(O)c1=O)c1cccnc1` [Example 286, N-[2-(3-chlorobenzyl)-9-hydroxy-1,8-dioxo-1,8-dihydro-2H-pyrido[1,2-a]pyrazin-7-yl]nicotinamide trifluoroacetate] cannot be ordered by pIC50: over 8.00 for the first, over 8.00 for the second.

`CC(C)Nc1cn2ccn(Cc3cccc(Cl)c3)c(=O)c2c(O)c1=O` [Example 280, 2-(3-chlorobenzyl)-9-hydroxy-7-isopropylamino-2H-pyrido [1,2-a]pyrazine-1,8-dione hydrochloride] and `CC(C)CNc1cn2ccn(Cc3cccc(Cl)c3)c(=O)c2c(O)c1=O` [Example 283, 2-(3-chlorobenzyl)-9-hydroxy-7-isobutylamino-2H-pyrido[1,2-a]pyrazine-1,8-dione hydrochloride] fall in the same range of pIC50: 7.00 to 8.00 for the first, 7.00 to 8.00 for the second.

`CCN(CC)c1cn2ccn(Cc3cccc(Cl)c3)c(=O)c2c(O)c1=O` [Example 281, 2-(3-chlorobenzyl)-7-diethylamino-9-hydroxy-2H-pyrido[1,2-a]pyrazine-1,8-dione hydrochloride] and `CCNc1cn2ccn(Cc3cccc(Cl)c3)c(=O)c2c(O)c1=O` [Example 285, 2-(3-chlorobenzyl)-7-ethylamino-9-hydroxy-2H-pyrido[1,2-a]pyrazine-1,8-dione hydrochloride] fall in the same range of pIC50: 7.00 to 8.00 for the first, 7.00 to 8.00 for the second.

Compared with `O=C1c2c(O)c(=O)c(-c3ccccn3)cn2CCN1Cc1cccc(Cl)c1` [Example 282, 2-(3-chlorobenzyl)-9-hydroxy-7-(pyridin-2-yl)-3,4-dihydro-2H-pyrido[1,2-a]pyrazine-1,8-dione hydrochloride], `O=C1c2c(O)c(=O)c(-c3cccnn3)cn2CCN1Cc1cccc(Cl)c1` [Example 290, 2-(3-chlorobenzyl)-9-hydroxy-7-(pyridazin-3-yl)-3,4-dihydro-2H-pyrido[1,2-a]pyrazine-1,8-dione hydrochloride] is lower in pIC50: over 8.00 for the first, 7.00 to 8.00 for the second.

Compared with `CC(C)C(C(=O)Nc1cn2ccn(Cc3cccc(Cl)c3)c(=O)c2c(O)c1=O)C(C)C` [Example 284, N-[2-(3-chlorobenzyl)-9-hydroxy-1,8-dioxo-1,8-dihydro-2H-pyrido[1,2-a]pyrazin-7-yl] -2-isopropyl-3-methylbutyramide], `O=C(Nc1cn2ccn(Cc3cccc(Cl)c3)c(=O)c2c(O)c1=O)c1ccco1` [Example 288, N-[2-(3-chlorobenzyl)-9-hydroxy-1,8-dioxo-1,8-dihydro-2H-pyrido[1,2-a]pyrazin-7-yl]furan-2-carboxamide] is higher in pIC50: 7.00 to 8.00 for the first, over 8.00 for the second. The second is the more potent here.

Compared with `O=C(Nc1cn2ccn(Cc3cccc(Cl)c3)c(=O)c2c(O)c1=O)c1cccs1` [Example 289, N-[2-(3-chlorobenzyl)-9-hydroxy-1,8-dioxo-1,8-dihydro-2H-pyrido[1,2-a]pyrazin-7-yl]thiophene-2-carboxamide], `O=C1c2c(O)c(=O)c(-c3nccs3)cn2CCN1Cc1ccc(F)c(F)c1` [Example 291, 2-(3,4-difluorobenzyl)-9-hydroxy-7-(thiazol-2-yl)-3,4-dihydro-2H-pyrido[1,2-a]pyrazine-1,8-dione] is lower in pIC50: over 8.00 for the first, 7.00 to 8.00 for the second. The first is the more potent here.

From patent US7211572B2 (Japan Tobacco Inc., priority 2003, dated 2007)
